Data from patent US12540118B2, “Dendrene amide compound, bactericide and use thereof” (Jiangsu Flag Chemical Industry Co., Ltd., priority 2020, dated 2026).

Assays:
succinate dehydrogenase = biological target: T1, succinate dehydrogenase (Sus scrofa, UniProt A5GZW8+D0VWV4+Q007T0); experiment: Enzyme activity assay, succinate dehydrogenase (DCIP reduction); format: biochemical, porcine; details: read-out: Inhibitors (10 μM, SQR)
T1 construct: isolated from porcine hearts; from tissue; host or cells: porcine heart
T1 sequence (Q0QF01 43-664 partner): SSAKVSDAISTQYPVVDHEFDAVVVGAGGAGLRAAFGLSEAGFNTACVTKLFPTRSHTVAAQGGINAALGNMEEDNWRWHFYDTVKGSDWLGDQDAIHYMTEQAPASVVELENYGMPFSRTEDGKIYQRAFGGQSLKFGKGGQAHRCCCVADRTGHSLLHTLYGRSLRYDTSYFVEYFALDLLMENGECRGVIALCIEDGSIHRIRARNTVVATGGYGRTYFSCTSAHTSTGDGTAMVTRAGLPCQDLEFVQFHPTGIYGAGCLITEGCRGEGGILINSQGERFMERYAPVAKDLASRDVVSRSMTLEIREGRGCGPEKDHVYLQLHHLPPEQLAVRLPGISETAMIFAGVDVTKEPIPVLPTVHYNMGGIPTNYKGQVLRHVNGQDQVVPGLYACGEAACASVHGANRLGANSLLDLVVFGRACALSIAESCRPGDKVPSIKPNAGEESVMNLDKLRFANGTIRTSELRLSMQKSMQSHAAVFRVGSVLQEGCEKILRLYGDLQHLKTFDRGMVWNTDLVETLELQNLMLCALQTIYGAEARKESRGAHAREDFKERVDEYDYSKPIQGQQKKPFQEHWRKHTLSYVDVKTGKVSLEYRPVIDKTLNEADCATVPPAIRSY
T1 sequence (Q007T0 29-280): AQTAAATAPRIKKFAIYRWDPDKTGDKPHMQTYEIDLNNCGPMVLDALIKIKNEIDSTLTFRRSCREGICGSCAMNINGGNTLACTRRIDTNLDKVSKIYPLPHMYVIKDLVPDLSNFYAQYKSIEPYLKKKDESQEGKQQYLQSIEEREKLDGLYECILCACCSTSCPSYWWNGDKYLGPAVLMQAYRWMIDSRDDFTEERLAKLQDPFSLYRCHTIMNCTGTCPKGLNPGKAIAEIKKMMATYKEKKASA
T1 sequence (D0VWV4 30-169): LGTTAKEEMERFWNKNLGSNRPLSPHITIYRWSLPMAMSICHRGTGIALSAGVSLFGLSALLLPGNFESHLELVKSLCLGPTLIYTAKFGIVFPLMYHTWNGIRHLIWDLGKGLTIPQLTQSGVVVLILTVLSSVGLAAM
T1 sequence (A5GZW8 57-159 limits assumed): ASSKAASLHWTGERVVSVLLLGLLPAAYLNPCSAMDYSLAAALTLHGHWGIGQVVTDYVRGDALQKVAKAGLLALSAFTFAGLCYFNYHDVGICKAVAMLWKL
Procedure: The inhibitory activities of control agents and target compounds on succinate dehydrogenase are determined.
The enzyme used in this test example is succinate dehydrogenase, which is isolated from porcine hearts.
The test method comprises the following steps: The total volume of the system is 1.8 ml, and the system contained 100 mM Na2HPO4—NaH2PO4 buffer (pH=7.4), 0.3 mM EDTA, 20 mM sodium succinate, 53 μM DCIP (2,6-dichloroindophenol sodium), and 2 nM succinate dehydrogenase. Thermostatic waterbath at 23° C. and magnetic stirring at 600 rpm. The decrease in the light absorption of the substrate DCIP is monitored at a wavelength of 600 nm and experimental points in a linear range are collected. Control substrate consumption not more than 5% of the experimental points. The molar extinction coefficient of DCIP is 21 mM^−1 cm^−1. And calculating the reduction yield of the DCIP in the reaction time, fitting a linear slope, and deducting the baseline slope to obtain the initial reaction speed.

Erysiphe graminis = Erysiphe graminis potting method; format: in vivo; details: Blumeria graminis, read-out: Erysiphe graminis control rating; for pest or weed control at 100 µg/mL: 100 mg/L
Procedure: The fungicidal activity of the control agents and target compounds are determined. The test and investigation method refers to SOP-SC-1116 Erysiphe graminis potting method in disinfectant rolls written by KANGZHUO and GUBAOGEN in “Standard operation specification for testing biological activity of pesticides”.

Sphaerotheca fuliginea = Sphaerotheca fuliginea potting method; format: in vivo; details: Podosphaera fuliginea; 100 mg/L; read-out: Sphaerotheca fuliginea control rating
Procedure: The fungicidal activity of the control agents and target compounds are determined. The test and investigation method refers to SOP-SC-1101 sphaerotheca fuliginea potting method in disinfectant rolls written by KANGZHUO and GUBAOGEN in “Standard operation specification for testing biological activity of pesticides”.

| Structure (SMILES) | inhibition at 10 µM (succinate dehydrogenase) [%] | pest or weed control at 100 µg/mL (Erysiphe graminis) [%] | pest or weed control at 100 µg/mL (Sphaerotheca fuliginea) [%] | pest or weed control at 6.25 µg/mL (Erysiphe graminis; 6.25 mg/L) [%] | pest or weed control at 25 µg/mL (Erysiphe graminis; 25 mg/L) [%] |
| --- | --- | --- | --- | --- | --- |
| C=C(CN(C(=O)c1c(C(F)F)nn(C)c1F)C1CC1)c1c(F)cccc1F [Compound 25] | > 90 | 80 to 100 | 80 to 100 |  |  |
| CC(C(=C(Cl)Cl)c1ccc(F)cc1F)N(C(=O)c1c(C(F)F)nn(C)c1F)C1CC1 (centres unmarked) [Compound 179] | > 90 | 80 to 100 | 80 to 100 |  |  |
| Cc1cccc(C(=C(Cl)Cl)C(C)N(C(=O)c2c(C(F)F)nn(C)c2F)C2CC2)c1 (centres unmarked) [Compound 192] | > 90 | 80 to 100 | 80 to 100 |  |  |
| C=C(c1cccc(Cl)c1Cl)C(C)N(C(=O)c1c(C(F)F)nn(C)c1F)C1CC1 (centres unmarked) [Compound 75] | > 90 | 80 to 100 | 80 to 100 |  |  |
| C=C(c1cc(S(C)(=O)=O)ccc1Cl)C(C)N(C(=O)c1c(C(F)F)nn(C)c1F)C1CC1 (centres unmarked) [Compound 106] | > 90 | 80 to 100 | 80 to 100 |  |  |
| Cn1nc(C(F)F)c(C(=O)N(CC(=C(Cl)Cl)c2ccc(F)cc2Cl)C2CC2)c1F [Compound 154] | > 90 | 80 to 100 | 80 to 100 |  |  |
| C=C(c1ccc(S(C)(=O)=O)cc1Cl)C(C)N(C(=O)c1c(C(F)F)nn(C)c1F)C1CC1 (centres unmarked) [Compound 103] | > 90 | 80 to 100 | 80 to 100 |  |  |
| Cc1cccc(C(CN(C(=O)c2c(C(F)F)nn(C)c2F)C2CC2)=C(Cl)Cl)c1 [Compound 139] | > 90 | 80 to 100 | 80 to 100 |  |  |
| C=C(c1cccc(C)c1)C(C)N(C(=O)c1c(C(F)F)nn(C)c1F)C1CC1 (centres unmarked) [Compound 70] | > 90 | 80 to 100 | 80 to 100 |  |  |
| CC(C(=C(Cl)Cl)c1cc(Cl)cc(Cl)c1)N(C(=O)c1c(C(F)F)nn(C)c1F)C1CC1 (centres unmarked) [Compound 174] | > 90 | 80 to 100 | 80 to 100 |  |  |
| CC(C(=C(Cl)Cl)c1cccc(C(F)(F)F)c1Cl)N(C(=O)c1c(C(F)F)nn(C)c1F)C1CC1 (centres unmarked) [Compound 210] | > 90 | 80 to 100 | 80 to 100 |  |  |
| CC(C(=C(Cl)Cl)c1ccc(F)cc1)N(C(=O)c1c(C(F)F)nn(C)c1F)C1CC1 (centres unmarked) [Compound 178] | > 90 | 80 to 100 | 80 to 100 |  |  |
| CC(C(=C(Cl)Cl)c1cccc(Br)c1)N(C(=O)c1c(C(F)F)nn(C)c1F)C1CC1 (centres unmarked) [Compound 186] | > 90 | 80 to 100 | 80 to 100 |  |  |
| C=C(CN(C(=O)c1c(C(F)F)nn(C)c1F)C1CC1)c1cc(C(C)C)ccc1C [Compound 37] | > 90 | 80 to 100 | 70 to 80 | 70 to 80 | 80 to 100 |
| CCS(=O)(=O)c1cccc(C(CN(C(=O)c2c(C(F)F)nn(C)c2F)C2CC2)=C(Cl)Cl)c1 [Compound 164] | > 90 | 80 to 100 | 80 to 100 |  |  |
| Cn1nc(C(F)F)c(C(=O)N(CC(=C(Cl)Cl)c2ccc(Br)cc2)C2CC2)c1F [Compound 131] | > 90 | 80 to 100 | 80 to 100 |  |  |
| C=C(CN(C(=O)c1c(C(F)F)nn(C)c1F)C1CC1)c1cc(Cl)ccc1F [Compound 44] | > 90 | 80 to 100 | 80 to 100 |  |  |

| Structure (SMILES) | inhibition at 10 µM (succinate dehydrogenase) [%] | pest or weed control at 100 µg/mL (Erysiphe graminis) [%] | pest or weed control at 100 µg/mL (Sphaerotheca fuliginea) [%] | pest or weed control at 6.25 µg/mL (Erysiphe graminis; 6.25 mg/L) [%] | pest or weed control at 25 µg/mL (Erysiphe graminis; 25 mg/L) [%] |
| --- | --- | --- | --- | --- | --- |
| C=C(CN(C(=O)c1c(C(F)F)nn(C)c1F)C1CC1)c1c(Br)cc(Br)cc1Br [Compound 31] | > 90 | 80 to 100 | 80 to 100 |  |  |
| C=C(c1c(Br)cc(Br)cc1Br)C(C)N(C(=O)c1c(C(F)F)nn(C)c1F)C1CC1 (centres unmarked) [Compound 85] | > 90 | 80 to 100 | 80 to 100 |  |  |
| Cc1cc(C)c(C(=C(Cl)Cl)C(C)N(C(=O)c2c(C(F)F)nn(C)c2F)C2CC2)c(C)c1 (centres unmarked) [Compound 196] | > 90 | 80 to 100 | 80 to 100 |  |  |
| CCS(=O)(=O)c1ccc(C(CN(C(=O)c2c(C(F)F)nn(C)c2F)C2CC2)=C(Cl)Cl)cc1 [Compound 163] | > 90 | 80 to 100 | 80 to 100 |  |  |
| C=C(c1ccc(Br)cc1Br)C(C)N(C(=O)c1c(C(F)F)nn(C)c1F)C1CC1 (centres unmarked) [Compound 82] | > 90 | 80 to 100 | 80 to 100 |  |  |
| Cn1nc(C(F)F)c(C(=O)N(CC(=C(Cl)Cl)c2ccc(Cl)cc2Cl)C2CC2)c1F [Compound 118] | > 90 | 80 to 100 | 80 to 100 |  |  |
| Cn1nc(C(F)F)c(C(=O)N(CC(=C(Cl)Cl)c2cccc(S(C)(=O)=O)c2)C2CC2)c1F [Compound 160] | > 90 | 80 to 100 | 80 to 100 |  |  |
| Cn1nc(C(F)F)c(C(=O)N(CC(=C(Cl)Cl)c2cc(Cl)ccc2F)C2CC2)c1F [Compound 155] | > 90 | 80 to 100 | 80 to 100 |  |  |
| Cc1ccc(C(C)(C)C)c(C(CN(C(=O)c2c(C(F)F)nn(C)c2F)C2CC2)=C(Cl)Cl)c1 [Compound 146] | > 90 | 80 to 100 | 80 to 100 |  |  |
| C=C(CN(C(=O)c1c(C(F)F)nn(C)c1F)C1CC1)c1ccccc1Br [Compound 3] | > 90 | 80 to 100 | 80 to 100 |  |  |
| C=C(c1ccc(F)cc1F)C(C)N(C(=O)c1c(C(F)F)nn(C)c1F)C1CC1 (centres unmarked) [Compound 64] | > 90 | 80 to 100 | 80 to 100 |  |  |
| C=C(CN(C(=O)c1c(C(F)F)nn(C)c1F)C1CC1)c1c(Cl)cccc1Cl [Compound 18] | > 90 | 80 to 100 | 80 to 100 |  |  |
| CC(C(=C(Cl)Cl)c1ccc(Br)cc1Br)N(C(=O)c1c(C(F)F)nn(C)c1F)C1CC1 (centres unmarked) [Compound 187] | > 90 | 80 to 100 | 80 to 100 |  |  |
| Cn1nc(C(F)F)c(C(=O)N(CC(=C(Cl)Cl)c2c(Cl)cccc2Cl)C2CC2)c1F [Compound 120] | > 90 | 80 to 100 | 80 to 100 |  |  |
| C=C(c1cc(C)ccc1C(C)C)C(C)N(C(=O)c1c(C(F)F)nn(C)c1F)C1CC1 (centres unmarked) [Compound 93] | > 90 | 80 to 100 | 80 to 100 |  |  |
| Cc1cc(C)c(C(CN(C(=O)c2c(C(F)F)nn(C)c2F)C2CC2)=C(Cl)Cl)c(C)c1 [Compound 143] | > 90 | 80 to 100 | 80 to 100 |  |  |
| Cn1nc(C(F)F)c(C(=O)N(CC(=C(Cl)Cl)c2cccc(F)c2)C2CC2)c1F [Compound 124] | > 90 | 80 to 100 | 80 to 100 |  |  |
